{
  "source": "paper PMC5908160",
  "about": "“Inhibition of sperm motility in male macaques with EP055, a potential non-hormonal male contraceptive” (PLoS ONE, 2018)",
  "key": {"human sperm": {"test_system": "human sperm", "test": "CASA (Computer Assisted Sperm Analysis) assay of human sperm motility", "type": "cell-based", "conditions": "n = 4 donors, read-out: average relative motility index (RMI) IC50", "protocol": "Human semen samples were obtained from the Department of Obstetrics and Gynecology, University of North Carolina Memorial Hospital, Chapel Hill, NC. […] Semen samples were allowed to liquefy for 30 minutes and subjected to standard semen analysis to determine acceptability before freezing. All samples were stored in liquid nitrogen, and de-identified by the Department of Obstetrics and Gynecology, University of North Carolina Memorial Hospital, Chapel Hill, NC before further processing. A density gradient (Isolate catalog number 99264, Irving Scientific, Irving CA, or SpermCare catalog number 2221 and 2222, InvitroCare Inc., Frederick MD) was used to prepare spermatozoa for further analysis. At least 3 independent experiments were done per assay, each using a single donor.\nComputer Assisted Sperm Analysis (CASA) was conducted as previously described. Briefly sperm were washed after the density gradient with EP buffer-0.4% BSA and resuspended in modified M16 for compound treatments. Sperm were diluted to 5 x 10^6/mL in 12x75 mm glass tubes with the appropriate treatment and incubated at 37°C in 5% CO2. […] The relative mobility index (RMI) is a measure of the effect of compound on sperm and is calculated as the VSL x %normal motility and normalized to the appropriate DMSO control."}, "[1]": {"test": "EP012 plasma half-life in rats", "type": "in vivo", "conditions": "rat, iv, preliminary testing, 1 mg/kg i.v. bolus", "protocol": "Preliminary half-life measurements for EP012 were carried out by Calvert Laboratories ([…]\nThe intravenous formulation was prepared by mixing an appropriate amount of EP012 (1 mg/kg) with an appropriate volume of intravenous vehicle (DMSO). The pH of the intravenous formulations was confirmed to be 7.4-7.6 and instilled through a syringe filter for sterilization prior to dosing. Three Sprague Dawley male rats (8-14 weeks; 300 to 325 g) were surgically implanted with a catheter in a jugular vein using polyurethane tubing and glycerol or dextrose solution as the lumen lock solution. The intravenous formulation was administered as a bolus injection into a lateral tail vein.\nSerial blood samples (~0.30 mL each), were obtained from each animal via the jugular vein catheter at the following timepoints post-dose: 0.083, 0.167, 0.333, 0.5, 1, 2, 4, 8, 12, and 24 hours. Plasma (~125 µL per sample) was harvested following centrifugation of the chilled blood samples at 3000 RPM for 10 minutes at +4 °C. Derived plasma was transferred into prelabeled plastic vials and stored frozen at approximately -70 °C or lower until processing.\nSample preparation and LC-MS/MS analysis were done by OpAns LLC (Durham, NC). Plasma samples (both rat and macaque) were thawed at room temperature and processed by adding 160 µL of methanol (including 10 µL internal standard) to 25 µL of the sample. […]"}, "EPPIN": {"target": "EPPIN (Homo sapiens, UniProt O95925)", "sequence (O95925 22-133)": "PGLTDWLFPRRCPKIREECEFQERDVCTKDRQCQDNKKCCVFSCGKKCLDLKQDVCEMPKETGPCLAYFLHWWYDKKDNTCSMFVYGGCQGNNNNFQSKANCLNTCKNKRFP", "test": "AlphaScreen assay of a-EAb binding to EPPIN", "conditions": "n = 4, read-out: IC50, inhibition of a-EAb binding to EPPIN", "protocol": "The AlphaScreen® assay was carried as previously described. Briefly, recombinant histidine-tagged recombinant EPPIN was pre-incubated with Ni-NTA chelate donor beads (catalog number AS101, Perkin Elmer, Waltham MA) and anti-Eppin 007 antibody was pre-incubated with Protein A acceptor beads (catalog number 6760136, Perkin Elmer, Waltham MA) for 30 minutes. Equal volumes of donor and acceptor bead mixtures were pipetted into white opaque 384-well microplates (OptiPlate-384; PerkinElmer, Waltham, MA) in a final volume of 30 μL. Plates were covered with top seal and transferred to a Synergy 2 Multiplatform automated plate reader (Biotek, Winooski, VT). After shaking for 2 min, plates were read with an excitation 680/30 filter, an emission 570/100 filter and data acquired using Gen5 software (Biotek). Each set of samples was pipetted in 4 replicates. […] A specific signal for each time point was calculated by subtracting the background signal (obtained in the absence of EPPIN) from its respective total signal. […] Non-specific interactions of compound with assay components were measured at the same time with the IgG detection kit ([…] biotinylated rabbit IgG) to generate the bead interaction: 10 μg/ml donor and acceptor beads. […]"}},
  "data": [
    {"molecule": "COC(=O)NNc1nc(Nc2ccc(NC(=O)OC)c(O)c2)nc(SCC(=O)O)n1", "note": "[EP012]", "values": [
      {"measurement": "IC50", "setting": "human sperm", "value": 33.4, "unit": "µM"},
      {"measurement": "half-life", "setting": "[1]", "value": "< 4", "unit": "min"},
      {"measurement": "IC50", "setting": "EPPIN", "value": 55.4, "unit": "µM"}
    ]}
  ]
}
